13 compounds from US20110091387A1, “METHODS AND COMPOSITIONS FOR REDUCING SKIN DAMAGE” (THE GENERAL HOSPITAL CORPORATION, priority 2007, published 2011) can be followed below.

The test system of one test is RhoE promoter. As to the kind of experiment: RhoE promoter luc2 luciferase reporter screen for inducers of RhoE expression. The note with it: luminescence at 24 hours; for Composite Z value (induction of RhoE expression): Table 1, two replicates per compound. The test is classed as cell-based. On the procedure:
To isolate compounds that can activate RhoE pathway in keratinocytes and protect against UVB exposure, a robust and sensitive chemical genetics approach was developed for the identification of small molecules that induce RhoE expression. Briefly, a reporter construct was created that included the RhoE promoter operatively linked to the luc2 luciferase reporter gene (FIG. 1A). Stable cell lines were produced that expressed the reporter construct, and the cells were plated in 384 well plates at ˜10,000 cells per well. The library test compounds were added to the plated cells at two replicates per compound, and the cells were incubated with the compounds for 24 hours. Luminescence was measured at 24 hours using a plate reader. The data were analyzed using Spotfire.
For orientation: In a reporter assay the amount or activity of a reporter protein is the signal.

In another test the test system is RhoE. Put plainly: Western blot of RhoE and p53 expression after kaempferol treatment. The test is classed as cell-based. The note with it: FIG. 3; relative to p53 expression. The source says:
FIG. 3 is a Western blot depicting RhoE and p53 expression following treatment with the indicated amounts of kaempferol.
A general note: In western blotting, separated proteins are transferred to a membrane and probed.

Test [1] relates to HaCaT human keratinocyte cells. Put plainly: UVB-induced cell death in HaCaT keratinocytes. The test is classed as cell-based. The note with it: 1 and 2.5 μM; UVB 30 mJ/cm^2; 24 hours later; FIG. 4. As to the method:
To determine whether RhoE inducing compounds have the protective effect on the UVB damage-mediated cell death, kaempferol-treated (1 and 2.5 μM) HaCaT human keratinocyte cells were exposed to UVB (30 mJ/cm^2), and 24 hours later cell death rate was examined (FIG. 4).

The subject of a further test is UVB damaged mouse skin. Put plainly: UVB damaged mouse skin treated topically (TUNEL, CPD, phospho-H2AX, RhoE staining). The test is classed as in vivo. As to the method:
Next, it was investigated whether kaempferol has any protective effect and or DNA repair potential on UVB damaged mouse skin. The dorsal hair of 8-week-old, C57BL/6 mice was trimmed and fine hair was removed by application of a hair-remover, 2 days before UVB exposure. Restrained mice were UVB irradiated at 120 mJ/cm^2 and treated with 0.5 mM kaempferol in 50 μl DMSO or DMSO control. The skin was removed from euthanized mice at various times after UVB exposure, fixed immediately in 4% neutral buffered paraformaldehyde, embedded in OCT, and sectioned at 8-μm thickness. Apoptotic cells were detected in skin sections harvested 16 hours after exposure to UVB, by the terminal nucleotidyl transferase-mediated nick end labeling (TUNEL) assay (Roche Applied Science, Germany) according to the manufacturer's instructions. […] The levels of an activated form of H2AX (Ser139) that is known to be activated and bound at the sites of DNA damage in response to UVB damage were also measured by staining with Anti-Phospho-H2AX (Ser139) antibodies (Upstate Cell Signaling Solutions, New York).

Structures can show the parent of a compound that is named as a salt.

For `O=c1c(O)c(-c2ccc(O)cc2)oc2cc(O)cc(O)c12` [Kaempferol], the “Composite Z value (induction of RhoE expression)” value (“Composite Z value” for short) with RhoE promoter is given as 6.2959. The “Composite Z” value in the test on RhoE promoter (Table 2, two replicates) is 6.2959. Also, the “RhoE expression (Western blot)” value in the test with RhoE is “able to activate RhoE expression in a p53-independent manner”. Besides, in test [1], the “UVB-induced cell death rate” value was “suppression of UVB-induced cell death”. Moreover, the “Apoptosis in epidermis (TUNEL)” value in the test on UVB damaged mouse skin (0.5 mM in 50 μl DMSO, UVB 120 mJ/cm^2, 16 hours after exposure, vs DMSO, FIG. 5) is given as “inhibited apoptosis induced by UVB damage in epidermis”. Further, the “Cyclobutane pyrimidine dimer (CPD) formation in epidermis (TDM-2 staining)” value with UVB damaged mouse skin (0.5 mM, UVB 120 mJ/cm^2, FIGS. 6A-6C) was “suppressed pyrimidine dimmer formation”. The “Levels of activated form of H2AX (Ser139) in skin” value in the test on UVB damaged mouse skin (0.5 mM, UVB 120 mJ/cm^2, FIGS. 7A-7C) is “significantly decreased”. The “RhoE expression in suprabasal area of epidermis” value in the test with UVB damaged mouse skin (0.5 mM, UVB exposure, FIG. 8) is given as “enhanced”.

In the case of `COc1ccc(-c2coc3cc(OC(C)=O)cc(OC(C)=O)c3c2=O)cc1` [biochanin a diacetate], the “Composite Z value” value in the test with RhoE promoter turned out to be 3.6564. On the same count and under the same terms, the figure for `COc1ccc(-c2coc3cc(O)cc(O)c3c2=O)cc1` [biochanin a] is 3.2901; for `COc1cc(OC)c2c(=O)cc(-c3ccccc3)oc2c1` [chrysin dimethyl ether] it is 3.477. Still for that read-out and setting: then `COc1ccc2c(=O)c(-c3cc4c(cc3OC)OCO4)coc2c1` [cuneatin methyl ether], with 2.23; and `C=CC(C1=CC(=O)C(OC)=CC1=O)c1ccc(O)cc1` (centres unmarked) [dalbergione, 4-methoxy-4′-hydroxy-], with 2.3862; and `CC[C@H]1OC(=O)[C@H](C)[C@@H](O[C@H]2C[C@@](C)(OC)[C@@H](O)[C@H](C)O2)[C@H](C)[C@@H](O[C@@H]2O[C@H](C)C[C@H](N(C)C)[C@H]2O)[C@](C)(O)C[C@@H](C)C(=O)[C@H](C)[C@@H](O)[C@]1(C)O` [erythromycin stearate, reference compound], with 3.1488. Regarding `COc1cc(O)c(C(=O)/C=C/c2ccccc2)c(OC)c1` [flavokawain b], the “Composite Z value” value with RhoE promoter came out at 3.604. Same read-out and setting: the figure for `NNc1nncc2ccccc12` [hydralazine hydrochloride, reference compound] is 2.3583; for `COc1ccc(C2CC(=O)c3ccc(OC)cc3O2)cc1` (centres unmarked) [liquiritigenin dimethyl ether] it is 4.6362; for `CC(C)C[C@H](NC(=O)OCC1c2ccccc2-c2ccccc21)C(=O)O` [n-(9-fluorenylmethoxycarbonyl)-1-leucine] it is 2.8734. On the same count and under the same terms, then `COc1ccc2c(c1)OCC(=Cc1ccc(O)c(O)c1)C2=O` [sappanone a 7-methyl ether], with 2.4579; and `COC(=O)C(C)c1ccc(C(=O)c2cccs2)cc1` (centres unmarked) [suprofen methyl ester], with 3.2205.
